Test results as given in patent US10766882B2, “1,2-naphthoquinone based derivative and method of preparing the same” (YUNGJIN PHARM. CO., LTD., priority 2013, dated 2020).

Experiments:
C57BL/6J Lep ob/ob mice = experiment: Weight loss effects in obese mice (ob/ob); type: in vivo; settings: vs 0.1% SLS controls
Description: 10 week-old C57BL/6J Lep ob/ob mice having genetic obesity characteristics available from ORIENTBIO were prepared. Two mice were raised in each polycarbonate breeding cage (200 W×260 L×130H (mm), Three-shine) in which temperature was 20 to 24° C., relative humidity was 35 to 65%, illuminance was 150 to 300 lux, night and day were 12 hours, and exhaust was performed at 10 to 15 air changes per hour. As a feed, low fat diet (11.9 kcal % fat, 5053, Labdiet) manufactured by ORIENTBIO was used. The feed was contained in a feeder and free intake was allowed. As drinking water, water, which was contained in a 250 mL polycarbonate based bottle, purified through a filter and a sterilizer was used and free intake was allowed.
The compound according to Example 1 synthesized in the present invention was orally administered to three C57BL/6J Lep ob/ob mice in amounts of 40 mg/kg, 80 mg/kg, and 120 mg/kg, respectively, once every day for two weeks. For administration, a disposable syringe fitted with a sonde for oral administration was used and 10 ml/kg of the compound was orally administered into the stomach. As controls, three C57BL/6J Lep ob/ob mice were administered 0.1% sodium lauryl sulfate (SLS) in an amount of 120 mg/kg in the same manner as described above. After administration, a time-dependent weight increase ratio, weight change, and intake amount were measured and results are illustrated in FIG. 1 below.
Weights of the experimental animals were measured immediately before administration of a test material and seven times a week from an administration initiation day to a test termination day. Increased total weights were calculated by subtracting weights measured on an experiment initiation day from weights measured one day before an experiment termination day. Food intake amounts were calculated by measuring feed supply amounts and remaining amounts twice a week from an initiation day of test material administration to a test termination day for each individual. […]
(§1) Experiments were performed under the same conditions as in Experimental Example 3-1 except that 15 week-old C57BL/6J Lep ob/ob mice having genetic obesity characteristics available from ORIENTBIO were prepared, the compounds according to Examples 5 and 6 were administered to three C57BL/6J Lep ob/ob mice in an amount of 150 mg/kg, 150 mg/kg of 0.1% SLS was administered to each of three C57BL/6J Lep ob/ob mice as controls, and experiments were performed for a total of one week. Weight increase ratios, weight change, and intake amounts depending on administration time were measured and results are illustrated in FIG. 5 below.
as §1, with “that 10” for “that 15”, “Examples 8, 9,” for “Examples 5”, “and 12” for “and 6”, “FIG. 6” for “FIG. 5”
Experiments were performed under the same conditions as in Experimental Example 3-1 except that 6 week-old C57BL/6J Lep ob/ob mice having genetic obesity characteristics available from ORIENTBIO were prepared, the compounds according to Examples 17, 18, 22, and 23 were administered to three C57BL/6J Lep ob/ob mice in an amount of 100 mg/kg, 100 mg/kg of 0.1% SLS was administered to each of three C57BL/6J Lep ob/ob mice as controls, and experiments were performed for a total of one week. Weight increase ratios, weight change, and intake amounts depending on administration time were measured and results are illustrated in FIG. 10 below. […]

NQO1 protein = NQO1 protein (Homo sapiens, UniProt P15559); experiment: NQO1 activity measurement (cytochrome C reduction); type: biochemical; settings: 5 ng NQO1 protein, 200 μM NADH, 77 μM cytochrome C, 37° C., absorbance 550 nm for 10 minutes
Description: An enzyme reaction solution included 25 mM Tris/HCl (pH 7.4), 0.14% bovine serum albumin, 200 μM NADH, 77 μM cytochrome C, and 5 ng of NQO1 protein. Enzymatic reaction was initiated by adding NADH and performed at 37° C. In this regard, a reaction rate was measured by observing absorbance, which was increased due to reduction of cytochrome C, at 550 nm for 10 minutes and NQO1 activity was represented as an amount of reduced cytochrome C [nmol cytochrome C reduced/min/μg protein].
Extinction coefficient for cytochrome C:21.1 mmol/L/cm=21.1 μmol/ml/cm

Cells = experiment: Measurement of lactate change amount within cells; type: cell-based; settings: PCA extract of cells, lactate measured from supernatant (Megazyme, K-LATE)
Description: Cells were treated with 400 μl of 6% PCA, and then collected and extracted. Centrifugation (13,000 rpm, 10 min) was performed. A precipitate was dried using a Speed-Vac and then a weight of dried precipitate was measured. A supernatant was neutralized using 400 μl of 1 M KOH and a final volume thereof was adjusted to 1 ml using 0.33 M KH2PO4/K2HPO4, pH 7.5. Centrifugation (13,000 rpm, 10 min) was performed and the amount of lactate was measured from a supernatant (Megazyme, K-LATE).

[1] = Exp. Ex. 3-12, FIG. 15: 6 week-old ob/ob mice, 100 mg/kg oral, two weeks
[2] = Exp. Ex. 3-3, FIG. 3: 11 week-old ob/ob mice, 100 mg/kg oral, total of 6 days
[3] = Exp. Ex. 3-13, FIG. 16: 6 week-old ob/ob mice, 100 mg/kg oral, one week
[4] = Exp. Ex. 3-4, FIG. 4: 12 week-old ob/ob mice, 150 mg/kg oral, one week
[5] = Exp. Ex. 3-5, FIG. 5: 15 week-old ob/ob mice, 150 mg/kg oral, one week
[6] = Exp. Ex. 3-6, FIG. 6: 10 week-old ob/ob mice, 150 mg/kg oral, one week

NQO1 protein, sequence (P15559 whole entry, species assumed): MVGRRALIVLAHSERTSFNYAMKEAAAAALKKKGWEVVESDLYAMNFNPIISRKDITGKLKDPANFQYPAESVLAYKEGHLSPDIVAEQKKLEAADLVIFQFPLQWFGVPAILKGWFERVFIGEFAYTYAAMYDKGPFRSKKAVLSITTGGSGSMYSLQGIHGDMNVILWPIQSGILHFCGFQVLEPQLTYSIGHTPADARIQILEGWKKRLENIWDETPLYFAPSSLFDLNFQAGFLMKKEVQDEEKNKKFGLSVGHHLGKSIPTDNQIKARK

| SMILES | NQO1 activity (5 μM, [nmol cytochrome C reduced/min/μg protein]) (NQO1 protein) | Lactate change amount within cells (nmol/mg cell) (Cells) | further results |
| --- | --- | --- | --- |
| CC(C)c1nc2c(n1Cc1ccc(F)cc1)C(=O)C(=O)c1ccccc1-2 [Example 33] | 152.5 nmol cytochrome C reduced/min/μg protein | 4.7 nmol/mg cell | intake amount (C57BL/6J Lep ob/ob mice; [1]): significantly decreased in some sections; weight change (C57BL/6J Lep ob/ob mice; [1]): significantly decreased in some sections; weight increase ratio (C57BL/6J Lep ob/ob mice; [1]): significantly decreased in some sections |
| CC(C)c1nc2c(n1C)-c1ccccc1C(=O)C2=O [Example 3, 2-isopropyl-1-methyl-1H-naphtho[2,1-d]imidazole-4,5-dione] | 139 nmol cytochrome C reduced/min/μg protein | 11.3 nmol/mg cell | intake amount (C57BL/6J Lep ob/ob mice; [2]): significantly decreased; weight increase ratio (C57BL/6J Lep ob/ob mice; [2]): significantly decreased |
| CCc1nc2c([nH]1)C(=O)C(=O)c1cc(Cl)ccc1-2 [Example 45, 7-chloro-2-ethyl-3H-naphtho[2,1-d]imidazole-4,5-dione] | 188.6 nmol cytochrome C reduced/min/μg protein | 5.7 nmol/mg cell | intake amount (C57BL/6J Lep ob/ob mice; [3]): significantly decreased in some sections; weight change (C57BL/6J Lep ob/ob mice; [3]): significantly decreased in some sections; weight increase ratio (C57BL/6J Lep ob/ob mice; [3]): significantly decreased in some sections |
| CC(C)(C)c1nc2c([nH]1)C(=O)C(=O)c1ccccc1-2 [Example 5, 2-tert-butyl-3H-naphtho[2,1-d]imidazole-4,5-dione] | 153 nmol cytochrome C reduced/min/μg protein | 8.5 nmol/mg cell | intake amount (C57BL/6J Lep ob/ob mice; [4]): significantly decreased; weight change (C57BL/6J Lep ob/ob mice; [4]): significantly decreased; weight increase ratio (C57BL/6J Lep ob/ob mice; [4]): significantly decreased; intake amount (C57BL/6J Lep ob/ob mice; [5]): significantly decreased; weight change (C57BL/6J Lep ob/ob mice; [5]): significantly decreased; weight increase ratio (C57BL/6J Lep ob/ob mice; [5]): significantly decreased |
| O=C1C(=O)c2[nH]c(-c3ccccc3)nc2-c2ccccc21 [Example 4, 2-phenyl-3H-naphtho[2,1-d]imidazole-4,5-dione] | 122 nmol cytochrome C reduced/min/μg protein | 9.1 nmol/mg cell | weight change (C57BL/6J Lep ob/ob mice; [4]): significantly decreased; weight increase ratio (C57BL/6J Lep ob/ob mice; [4]): significantly decreased |
| O=C1C(=O)c2[nH]c(C3CC3)nc2-c2ccccc21 [Example 12] | 184 nmol cytochrome C reduced/min/μg protein | 7.0 nmol/mg cell | intake amount (C57BL/6J Lep ob/ob mice; [6]): significantly decreased; weight change (C57BL/6J Lep ob/ob mice; [6]): significantly decreased; weight increase ratio (C57BL/6J Lep ob/ob mice; [6]): significantly decreased |
| CC(C)Cc1nc2c([nH]1)C(=O)C(=O)c1ccccc1-2 [Example 8] | 213 nmol cytochrome C reduced/min/μg protein | 10.0 nmol/mg cell | intake amount (C57BL/6J Lep ob/ob mice; [6]): significantly decreased; weight change (C57BL/6J Lep ob/ob mice; [6]): significantly decreased; weight increase ratio (C57BL/6J Lep ob/ob mice; [6]): significantly decreased |
| CCc1nc2c(n1C)C(=O)C(=O)c1cc(F)ccc1-2 [Example 41, 2-ethyl-7-fluoro-3-methyl-3H-naphtho[2,1-d]imidazole-4,5-dione] | 148.4 nmol cytochrome C reduced/min/μg protein | 7.2 nmol/mg cell | intake amount (C57BL/6J Lep ob/ob mice; [3]): significantly decreased in some sections; weight change (C57BL/6J Lep ob/ob mice; [3]): significantly decreased in some sections; weight increase ratio (C57BL/6J Lep ob/ob mice; [3]): significantly decreased in some sections |
| CC(C)c1nc2c(n1C(=O)OC(C)(C)C)C(=O)C(=O)c1ccccc1-2 [Example 29] | 215.6 nmol cytochrome C reduced/min/μg protein | 8.1 nmol/mg cell |  |
| CC(C)c1nc2c(n1Cc1ccccc1)C(=O)C(=O)c1ccccc1-2 [Example 32] | 124.2 nmol cytochrome C reduced/min/μg protein | 5.8 nmol/mg cell |  |
| O=C1C(=O)c2[nH]c(COc3ccccc3)nc2-c2ccccc21 [Example 78] | 81.7 nmol cytochrome C reduced/min/μg protein | 8.0 nmol/mg cell |  |
| CCc1nc2c([nH]1)C(=O)C(=O)c1cc([N+](=O)[O-])ccc1-2 [Example 24] | 208.2 nmol cytochrome C reduced/min/μg protein | 4.3 nmol/mg cell |  |
| CC(C)(C)OC(=O)N(Cc1nc2c([nH]1)C(=O)C(=O)c1ccccc1-2)c1ccccc1 [Example 48] | 59.8 nmol cytochrome C reduced/min/μg protein | 5.1 nmol/mg cell |  |
| CC(C)c1nc2c(n1C(=O)OCc1ccccc1)C(=O)C(=O)c1ccccc1-2 [Example 31] | 127.1 nmol cytochrome C reduced/min/μg protein | 5.1 nmol/mg cell |  |
